According to patent US20250049929A1, “NOVEL TETRAHYDROQUINOLINES AND PROTEOLYSIS TARGETING CHIMERA (PROTACS) COMPRISING THEM AS DEGRADERS OF SMARCA” (Boehringer Ingelheim International GmbH, priority 2021, published 2025):

Legend:
[1] = biological target: T1, SMARCA2 (Homo sapiens, UniProt P51531); assay: SMARCA2 degradation analysis by imaging in RKO cells (DC50 A2); assay type: cell-based; details: tables 69, 70, 73, 76-78
T1 construct: endogenous in cells; host or cells: RKO cells (CRL-2577, ATCC)
T1 sequence (P51531 whole entry): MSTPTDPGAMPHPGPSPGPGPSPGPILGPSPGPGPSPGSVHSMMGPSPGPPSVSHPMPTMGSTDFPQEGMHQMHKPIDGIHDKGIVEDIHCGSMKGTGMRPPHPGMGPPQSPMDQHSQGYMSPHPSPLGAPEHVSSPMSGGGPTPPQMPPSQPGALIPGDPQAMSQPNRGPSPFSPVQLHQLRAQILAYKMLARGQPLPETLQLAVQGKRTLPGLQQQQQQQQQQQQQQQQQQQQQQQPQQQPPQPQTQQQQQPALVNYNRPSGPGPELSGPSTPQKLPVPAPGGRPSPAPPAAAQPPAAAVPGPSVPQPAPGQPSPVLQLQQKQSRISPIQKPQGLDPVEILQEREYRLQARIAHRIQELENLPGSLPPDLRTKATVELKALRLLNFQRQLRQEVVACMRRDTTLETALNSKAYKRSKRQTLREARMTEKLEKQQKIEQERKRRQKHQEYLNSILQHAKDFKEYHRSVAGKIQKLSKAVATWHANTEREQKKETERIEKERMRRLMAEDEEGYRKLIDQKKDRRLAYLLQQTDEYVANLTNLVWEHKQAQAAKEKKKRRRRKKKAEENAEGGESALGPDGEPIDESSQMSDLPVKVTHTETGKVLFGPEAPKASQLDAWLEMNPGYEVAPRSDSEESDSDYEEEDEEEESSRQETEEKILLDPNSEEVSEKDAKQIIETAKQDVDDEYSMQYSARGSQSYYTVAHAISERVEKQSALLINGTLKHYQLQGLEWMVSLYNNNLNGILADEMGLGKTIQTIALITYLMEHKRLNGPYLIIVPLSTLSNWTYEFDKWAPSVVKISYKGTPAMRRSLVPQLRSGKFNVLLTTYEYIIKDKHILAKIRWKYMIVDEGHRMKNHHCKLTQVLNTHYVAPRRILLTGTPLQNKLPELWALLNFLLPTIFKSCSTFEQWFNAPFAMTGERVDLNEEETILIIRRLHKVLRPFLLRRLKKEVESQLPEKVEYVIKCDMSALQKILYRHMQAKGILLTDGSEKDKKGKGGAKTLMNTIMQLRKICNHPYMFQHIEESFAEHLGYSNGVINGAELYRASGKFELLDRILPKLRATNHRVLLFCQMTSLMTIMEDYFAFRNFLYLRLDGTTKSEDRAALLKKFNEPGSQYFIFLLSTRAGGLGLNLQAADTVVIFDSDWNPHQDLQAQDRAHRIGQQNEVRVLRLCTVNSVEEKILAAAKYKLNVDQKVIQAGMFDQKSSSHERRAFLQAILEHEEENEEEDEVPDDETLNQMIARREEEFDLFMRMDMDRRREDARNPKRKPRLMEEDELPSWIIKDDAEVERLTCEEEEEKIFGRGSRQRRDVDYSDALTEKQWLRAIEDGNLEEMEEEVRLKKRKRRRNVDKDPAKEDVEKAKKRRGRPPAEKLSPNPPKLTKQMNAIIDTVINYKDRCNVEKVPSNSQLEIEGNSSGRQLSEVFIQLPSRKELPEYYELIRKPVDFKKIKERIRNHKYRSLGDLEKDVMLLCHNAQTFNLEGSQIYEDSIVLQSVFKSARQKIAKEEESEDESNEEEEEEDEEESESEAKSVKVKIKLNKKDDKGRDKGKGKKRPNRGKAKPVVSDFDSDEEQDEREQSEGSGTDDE
Protocol: (§1) Determination of SMARCA2 and SMARCA4 Degradation (DC50 A2 and A4 [nM])
(§2) Protein Degradation Assays for SMARCA2 and SMARCA4
(§3) For degradation analysis by imaging, 1250 RKO cells (CRL-2577, ATCC) per well were seeded into 60 μL DMEM (Sigma Aldrich) supplemented with 10% FBS (Hyclone) in 384-well flat bottom plates (CellCarrier Ultra, Perkin Elmer) and incubated at 37° C. and 5% CO2 in a humidified atmosphere overnight. Compounds were added the next day using an Access Labcyte Workstation with a Labcyte Echo 550 or 555 acoustic dispenser and incubated with the cells for 4 or 24 h. Cells were fixed by adding 25 μL fixation buffer (7.4% formaldehyde (Sigma Aldrich F8775), 0.2% Triton TX100 (Sigma Aldrich F93443) in PBS) for 15 minutes at room temperature. After aspirating the fixing solution, the cells were washed once with 25 μL PBS and 25 μL of Blocking Buffer (10% Goat Serum in PBS) were added to each well and incubated for 30 minutes. Cells were washed with PBS and incubated with 20 μL mouse anti-Smarca4 (BRG1) antibody (Cell Signaling #52251) or rabbit anti-Smarca2 (BRM) antibody (Sigma Aldrich HPA029981) in blocking solution (PBS with 10% FCS) for ca. 2-4 h at RT. For detection of the nuclei, 25 μL of 5 μg/mL Hoechst 33342 (stock 10 mg/mL in H2O; Invitrogen H1399) were added together with Alexa Fluor 647 goat anti-mouse IgG (Invitrogen A-21235) or Alexa Fluor 488 goat anti-rabbit IgG (Invitrogen A-11034) in blocking solution and incubated for 60 min at RT. The cell layer was washed with 25 μL PBS, the wells were filled with 25 μL PBS and the plates sealed with an adhesive sheet. The mean intensity at 488 or 647 nm in the nucleus was measured using an Opera Phenix Plus High-Content Screening System (Perkin Elmer), values were normalized to the background and DMSO control and DC50 values were calculated and analyzed using a four-parametric logistic model.

[2] = biological target: T2, SMARCA4 (Homo sapiens, UniProt P51532); assay: SMARCA4 degradation analysis by imaging in RKO cells (DC50 A4); assay type: cell-based; details: tables 69, 70, 73, 76-78
T2 construct: endogenous in cells; host or cells: RKO cells (CRL-2577, ATCC)
T2 sequence (P51532 whole entry): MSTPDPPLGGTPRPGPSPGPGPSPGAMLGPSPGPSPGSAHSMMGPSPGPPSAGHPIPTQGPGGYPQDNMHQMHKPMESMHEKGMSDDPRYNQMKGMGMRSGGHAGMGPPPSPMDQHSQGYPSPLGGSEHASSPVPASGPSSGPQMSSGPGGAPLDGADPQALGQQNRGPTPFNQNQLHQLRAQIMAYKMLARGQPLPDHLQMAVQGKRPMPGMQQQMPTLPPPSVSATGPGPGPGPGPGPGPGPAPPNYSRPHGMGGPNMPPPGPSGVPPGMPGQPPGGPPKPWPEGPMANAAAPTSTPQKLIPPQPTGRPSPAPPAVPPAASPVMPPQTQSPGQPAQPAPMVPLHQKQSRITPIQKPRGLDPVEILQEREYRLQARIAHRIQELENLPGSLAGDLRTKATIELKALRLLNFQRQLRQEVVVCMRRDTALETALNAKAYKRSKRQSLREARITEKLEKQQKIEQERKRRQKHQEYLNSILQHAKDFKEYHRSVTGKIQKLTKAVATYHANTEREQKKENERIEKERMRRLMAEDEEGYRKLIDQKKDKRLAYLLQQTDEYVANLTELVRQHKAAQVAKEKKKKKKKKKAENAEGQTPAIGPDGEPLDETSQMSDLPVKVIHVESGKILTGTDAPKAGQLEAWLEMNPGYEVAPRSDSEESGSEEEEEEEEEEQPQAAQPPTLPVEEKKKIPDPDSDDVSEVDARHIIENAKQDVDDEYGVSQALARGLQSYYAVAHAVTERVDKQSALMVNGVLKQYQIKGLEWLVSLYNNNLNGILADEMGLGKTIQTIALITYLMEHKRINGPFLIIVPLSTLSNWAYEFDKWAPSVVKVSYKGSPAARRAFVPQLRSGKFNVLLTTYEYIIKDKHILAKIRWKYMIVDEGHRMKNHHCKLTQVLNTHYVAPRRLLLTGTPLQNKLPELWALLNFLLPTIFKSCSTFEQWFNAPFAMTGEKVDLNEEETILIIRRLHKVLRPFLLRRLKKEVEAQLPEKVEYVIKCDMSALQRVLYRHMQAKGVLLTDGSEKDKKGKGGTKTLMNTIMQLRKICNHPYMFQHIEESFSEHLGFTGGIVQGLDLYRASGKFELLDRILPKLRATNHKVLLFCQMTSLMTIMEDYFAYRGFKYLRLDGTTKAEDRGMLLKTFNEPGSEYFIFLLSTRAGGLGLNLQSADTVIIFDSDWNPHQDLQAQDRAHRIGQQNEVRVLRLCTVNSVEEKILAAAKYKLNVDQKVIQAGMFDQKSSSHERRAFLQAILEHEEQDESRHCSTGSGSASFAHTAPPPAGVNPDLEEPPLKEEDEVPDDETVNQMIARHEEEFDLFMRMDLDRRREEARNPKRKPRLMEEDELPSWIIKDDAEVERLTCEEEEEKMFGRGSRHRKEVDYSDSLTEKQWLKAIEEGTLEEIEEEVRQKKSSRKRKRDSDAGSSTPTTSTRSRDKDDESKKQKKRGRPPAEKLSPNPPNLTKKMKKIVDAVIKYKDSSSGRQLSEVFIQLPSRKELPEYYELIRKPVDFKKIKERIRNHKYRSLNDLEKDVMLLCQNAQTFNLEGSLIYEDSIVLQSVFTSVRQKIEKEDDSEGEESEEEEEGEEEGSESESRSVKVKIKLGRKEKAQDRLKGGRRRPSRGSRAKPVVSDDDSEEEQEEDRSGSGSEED
Protocol: as §1, §2, §3

Row | SMILES | DC50 [1] [nM] | DC50 [2] [nM]
1 | Cc1ncsc1-c1ccc([C@H](COCCN2CCC(c3cc4c(cc3OCCN3CCN(C)CC3)n3c5cccc(Br)c5c(=O)nc3n4C3CCCC3)CC2)NC(=O)[C@@H]2C[C@@H](O)CN2C(=O)[C@@H](NC(=O)C2(F)CC2)C(C)(C)C)cc1 [Compound 42ab] | 21 | > 200
2 | CCn1c2cc(C3CCN(CCCCCOC[C@H](NC(=O)[C@@H]4C[C@@H](O)CN4C(=O)[C@@H](NC(=O)C4(N(C)C)CC4)C(C)(C)C)c4ccc(-c5scnc5C)cc4)CC3)c(OCCOCCOC)cc2n2c3cccc(Br)c3c(=O)nc12 [Compound 42ag] | 9 | > 200
3 | Cc1ncsc1-c1ccc([C@H](CCCN2CCC(c3cc4c(cc3OCCOCCO)n3c5cccc(Br)c5c(=O)nc3n4C3CCCC3)CC2)NC(=O)[C@@H]2C[C@@H](O)CN2C(=O)[C@@H](NC(=O)C2(F)CC2)C(C)(C)C)cc1 [Compound 42am] | 0.9 | 25
4 | Cc1ncsc1-c1ccc([C@H](CO[C@H](C)CN2CCC(c3cc4c(cc3OC[C@@H]3CCCO3)n3c5cccc(Br)c5c(=O)nc3n4C3CCCC3)CC2)NC(=O)[C@@H]2C[C@@H](O)CN2C(=O)[C@@H](NC(=O)C2(F)CC2)C23CC4CC(CC(C4)C2)C3)cc1 [Compound 42an] | 0.6 | 7
5 | Cc1ncsc1-c1ccc([C@H](CCCCCN2CCN(c3ccc4c(c3)n(C3CCCC3)c3nc(=O)c5c(Br)cccc5n43)CC2(C)C)NC(=O)[C@@H]2C[C@@H](O)CN2C(=O)[C@@H](NC(=O)C2(F)CC2)C(C)(C)C)cc1 [Compound 42ao] | 1 | 17
6 | Cc1ncsc1-c1ccc([C@H](CCCCCN2CCN(c3ccc4c(c3)n(C3CCCC3)c3nc(=O)c5c(Br)cccc5n43)[C@H](C)C2)NC(=O)[C@@H]2C[C@@H](O)CN2C(=O)[C@@H](NC(=O)C2(F)CC2)C(C)(C)C)cc1 [Compound 42aq] | 1 | 9
7 | Cc1ncsc1-c1ccc([C@H](CCCCCN2CCN(c3ccc4c(c3)n(C3CCCC3)c3nc(=O)c5c(Br)cccc5n43)[C@@H](C)C2)NC(=O)[C@@H]2C[C@@H](O)CN2C(=O)[C@@H](NC(=O)C2(F)CC2)C(C)(C)C)cc1 [Compound 42ar] | 0.5 | 2
8 | Cc1ncsc1-c1ccc([C@H](CCCCCN2C[C@@H]3C[C@H]2CN3c2ccc3c(c2)n(C2CCCC2)c2nc(=O)c4c(Br)cccc4n32)NC(=O)[C@@H]2C[C@@H](O)CN2C(=O)[C@@H](NC(=O)C2(F)CC2)C(C)(C)C)cc1 [Compound 42au] | 7 | > 833
9 | Cc1ncsc1-c1ccc([C@H](COCCN2CCC(c3cc4c(cc3F)n3c5cccc(Br)c5c(=O)nc3n4C3CCCC3)CC2)NC(=O)[C@@H]2C[C@@H](O)CN2C(=O)[C@@H](NC(=O)C2(F)CC2)C(C)(C)C)cc1 [Compound 42av] | 13 | 162
10 | Cc1ncsc1-c1ccc([C@H](CCCCCN2CCC(c3cc4c(cn3)n3c5cccc(Br)c5c(=O)nc3n4C3CCCC3)CC2)NC(=O)[C@@H]2C[C@@H](O)CN2C(=O)[C@@H](NC(=O)C2(F)CC2)C(C)(C)C)cc1 [Compound 42aw] | 6 | > 833
11 | Cc1ncsc1-c1ccc([C@H](CCCCN(C)C2CCC(c3ccc4c(c3)n(C3CCCC3)c3nc(=O)c5c(Br)cccc5n43)CC2)NC(=O)[C@@H]2C[C@@H](O)CN2C(=O)[C@@H](NC(=O)C2(F)CC2)C(C)(C)C)cc1 (stereo partly drawn) [Compound 42ax] | 7 | 29
12 | COc1cc2c(cc1C1CCN(CCOC[C@H](NC(=O)[C@@H]3C[C@@H](O)CN3C(=O)[C@@H](NC(=O)C3(F)CC3)C(C)(C)C)c3ccc(-c4scnc4C)cc3)CC1)n(C1CCCC1)c1nc(=O)c3c(Br)cccc3n21 [Compound 42ay] | 15 | 109
13 | Cc1ncsc1-c1ccc([C@H](COCCN2CCC(c3cc4c(cc3OC3CCOC3)n3c5cccc(Br)c5c(=O)nc3n4C3CCCC3)CC2)NC(=O)[C@@H]2C[C@@H](O)CN2C(=O)[C@@H](NC(=O)C2(F)CC2)C(C)(C)C)cc1 (stereo partly drawn) [Compound 42az] | 36 | 800
14 | Cc1ncsc1-c1ccc([C@H](CC[C@H](C)CCN2CCC(c3ccc4c(c3)n([C@H]3CCOC3)c3nc(=O)c5c(Br)cccc5n43)CC2)NC(=O)[C@@H]2C[C@@H](O)CN2C(=O)[C@@H](NC(=O)C2(F)CC2)C(C)(C)C)cc1 [Compound 42b] | 2 | > 833
15 | CCn1c2cc(C3CCN(CCCCC[C@H](NC(=O)[C@@H]4C[C@@H](O)CN4C(=O)[C@@H](NC(=O)C4(F)CC4)C(C)(C)C)c4ccc(-c5scnc5C)cc4)CC3)ccc2n2c3cccc(Br)c3c(=O)nc12 [Compound 42ba] | 4 | 22

Next, values leading:

Row | DC50 [1] [nM] | DC50 [2] [nM] | SMILES
16 | 0.9 | 25 | Cc1ncsc1-c1ccc([C@H](CC[C@H](C)CCN2CCC(c3ccc4c(c3)n(C3CCCC3)c3nc(=O)c5c(Br)cccc5n43)CC2)NC(=O)[C@@H]2C[C@@H](O)CN2C(=O)[C@@H](NC(=O)C2(F)CC2)C(C)(C)C)cc1 [Compound 42a]
17 | 10 | 20 | Cc1ncsc1-c1ccc([C@H](CCCN2CCC(c3cc4c(cc3OCCCN(C)C)n3c5cccc(Br)c5c(=O)nc3n4C3CCCC3)CC2)NC(=O)[C@@H]2C[C@@H](O)CN2C(=O)[C@@H](NC(=O)C2(F)CC2)C(C)(C)C)cc1 [Compound 42aa]
18 | 20 | > 200 | Cc1ncsc1-c1ccc([C@H](CO[C@@H](C)CN2CCC(c3ccc4c(c3)n(C3CCCC3)c3nc(=O)c5c(Br)cccc5n43)CC2)NC(=O)[C@@H]2C[C@@H](O)CN2C(=O)[C@@H](NC(=O)C2(F)CC2)C(C)(C)C)cc1 [Compound 42ac]
19 | 25 | > 200 | Cc1ncsc1-c1ccc([C@H](CCCN2CCC(c3ccc4c(c3)n(C3COC3)c3nc(=O)c5c(Br)cccc5n43)CC2)NC(=O)[C@@H]2C[C@@H](O)CN2C(=O)[C@@H](NC(=O)C2(F)CC2)C(C)(C)C)cc1 [Compound 42ad]
20 | 1 | 5 | CC(C)(C)[C@H](NC(=O)C1(F)CC1)C(=O)N1C[C@H](O)C[C@H]1C(=O)N[C@@H](CCCN1CCC(c2ccc3c(c2)n(C2CCCC2)c2nc(=O)c4c(Br)cccc4n32)CC1)c1ccc(-c2cncs2)cc1 [Compound 42ae]
21 | 6 | 25 | Cc1ncsc1-c1ccc([C@H](COCC(O)CN2CCC(c3ccc4c(c3)n(C3CCCC3)c3nc(=O)c5c(Br)cccc5n43)CC2)NC(=O)[C@@H]2C[C@@H](O)CN2C(=O)[C@@H](NC(=O)C2(F)CC2)C(C)(C)C)cc1 (stereo partly drawn) [Compound 42af]
22 | 2 | 17 | Cc1ncsc1-c1ccc([C@H](CCCN2CCC(c3ccc4c(c3)n(C3CCCC3)c3nc(=O)c5c(Br)cccc5n43)CC2)NC(=O)[C@@H]2C[C@@H](O)CN2C(=O)[C@@H](NC(=O)C2(N(C)C)CC2)C(C)(C)C)cc1 [Compound 42ah]
23 | 2 | 9 | Cc1ncsc1-c1ccc([C@H](CCCCN2CCC(c3ccc4c(c3)n(C3CCCC3)c3nc(=O)c5c(Br)cccc5n43)CC2)NC(=O)[C@@H]2C[C@@H](O)CN2C(=O)[C@@H](NC(=O)C2(F)CC2)C(C)(C)C)cc1 [Compound 42ai]
24 | 4 |  | Cc1ncsc1-c1ccc([C@H](COCCN2CCC(c3ccc4c(c3)n(C3CCCC3)c3nc(=O)c5c(Br)cccc5n43)CC2)NC(=O)[C@@H]2C[C@@H](O)CN2C(=O)[C@@H](NC(=O)C2(N(C)C)CC2)C(C)(C)C)cc1 [Compound 42aj]
25 | 2 | 11 | Cc1ncsc1-c1ccc([C@H](COCCCN2CCC(c3ccc4c(c3)n(C3CCCC3)c3nc(=O)c5c(Br)cccc5n43)CC2)NC(=O)[C@@H]2C[C@@H](O)CN2C(=O)[C@@H](NC(=O)C2(F)CC2)C(C)(C)C)cc1 [Compound 42ak]
26 | 82 | > 833 | Cc1ncsc1-c1ccc([C@@H](CC[C@@H](C)CCN2CCC(c3ccc4c(c3)n(C3CCCC3)c3nc(=O)c5c(Br)cccc5n43)CC2)NC(=O)[C@@H]2C[C@@H](O)CN2C(=O)[C@@H](NC(=O)C2(F)CC2)C(C)(C)C)cc1 [Compound 42as]
27 | 57 | > 833 | Cc1ncsc1-c1ccc([C@@H](CC[C@H](C)CCN2CCC(c3ccc4c(c3)n(C3CCCC3)c3nc(=O)c5c(Br)cccc5n43)CC2)NC(=O)[C@@H]2C[C@@H](O)CN2C(=O)[C@@H](NC(=O)C2(F)CC2)C(C)(C)C)cc1 [Compound 42at]
28 | 17 | 142 | Cc1ncsc1-c1ccc([C@H](COCCN2CCC(c3ccc4c(c3)n(C3CCCC3)c3nc(=O)c5c(Br)cccc5n43)CC2)NC(=O)[C@@H]2C[C@@H](O)CN2C(=O)[C@@H](NC(=O)C2(C)CC2)C(C)(C)C)cc1 [Compound 42bb]
29 | 19 | 133 | Cc1ncsc1-c1ccc([C@H](COCCN2CCC(c3ccc4c(c3)n(C3CCCC3)c3nc(=O)c5c(Br)cccc5n43)CC2)NC(=O)[C@@H]2C[C@@H](O)CN2C(=O)[C@@H](NC(=O)C2(C(F)(F)F)CC2)C(C)(C)C)cc1 [Compound 42bc]
